Activity calls are given as the source filed them. No cut-off for these calls is given here.
What was measured:
[1] = test system: HCT-116; test: Antiproliferative activity against doxorubicin resistant human HCT-116 cells measured after 72 hrs by MTT assay; assay type: functional, cell-based; settings: HCT-116, 72 h
[2] = Cytotoxicity against human HEK293T cells measured after 72 hrs by MTT assay; assay type: toxicity, cell-based, HEK-293T
[3] = Cmax in Kunming mouse plasma at 10 mg/kg, iv administered as single dose measured after 5 to 360 mins by HPLC analysis; assay type: ADME, organism-based; parameters: dose 10 mg/kg, time upper 360 min, time lower 5 min, route iv
[4] = test system: HCT-116; test: Antiproliferative activity against doxorubicin sensitive human HCT-116 cells measured after 72 hrs by MTT assay; assay type: functional, cell-based; settings: HCT-116, 72 h
[5] = test system: A-375; test: Cytotoxicity against human A-375 cells expressing high level of topoisomerase I/II measured after 72 hrs by MTT assay; assay type: functional, cell-based; settings: A-375, 72 h
[6] = Microsomal stability in mouse liver microsomes assessed as half life measured at 2 ug/ml upto 60 mins in presence of NADPH generating system and UGT incubation system by phase II metabolic stability kit method; assay type: ADME, Microsome; settings: dose 2 µg/ml
[7] = Cytotoxicity against human L02 cells measured after 72 hrs by MTT assay; assay type: toxicity, cell-based
[8] = test system: A-375; test: In vivo antitumor activity against human A-375 cells xenografted in BALB/c nude mouse assessed as decrease in tumor weight treated after 7 days of tumor implantation on right flank subcutaneously at 10 mg/kg, iv administered once per 2 days for 14 days measured once every two days; assay type: functional, organism-based; settings: time 14.0 day
[9] = test system: A-375; test: (§1) In vivo induction of apoptosis in human A-375 cells xenografted in BALB/c nude mouse assessed as increase in C-caspase-3 level treated after 7 days of tumor implantation on right flank subcutaneously at 10 mg/kg, iv administered once per 2 days for 14 days by measuring TUNEL positive cells under a light microscope; assay type: functional, organism-based; settings: time 14.0 day
[10] = test system: A-375; test: In vivo induction of apoptosis in human A-375 cells xenografted in BALB/c nude mouse treated after 7 days of tumor implantation on right flank subcutaneously at 10 mg/kg, iv administered once per 2 days for 14 days by measuring TUNEL positive cells under a light microscope; assay type: functional, organism-based; settings: time 14.0 day
[11] = Selectivity index, ratio of IC50 for human L02 cells to IC50 for human A-375 cells; assay type: toxicity; settings: L02 cells and A-375 cells, read-out: Ratio IC50
[12] = Half life in Kunming mouse plasma at 10 mg/kg, iv administered as single dose measured after 5 to 360 mins by HPLC analysis; assay type: ADME, organism-based; settings: time 5-360 min
[13] = test system: A-375; test: Induction of cell cycle arrest in human A-375 cells assessed as accumulation of cells at G2 phase at 80 nM incubated for 24 hrs by PI based flow cytometric analysis (RVB = 20.34%); assay type: functional
[14] = test system: MDA-MB-231; test: Cytotoxicity against human MDA-MB-231 cells expressing high level of topoisomerase I/II measured after 72 hrs by MTT assay; assay type: functional, cell-based; settings: MDA-MB-231, 72 h
[15] = test system: A-375; test: Induction of cell cycle arrest in human A-375 cells assessed as accumulation of cells at S phase at 80 nM incubated for 24 hrs by PI based flow cytometric analysis (RVB = 26.73%); assay type: functional
[16] = Tmax in Kunming mouse plasma at 10 mg/kg, iv administered as single dose measured after 5 to 360 mins by HPLC analysis; assay type: ADME, organism-based; settings: time 5-360 min
[17] = test system: SH-SY5Y; test: Cytotoxicity against human SH-SY5Y cells expressing low level of topoisomerase I/II measured after 72 hrs by MTT assay; assay type: functional, cell-based
[18] = test system: A549; test: Cytotoxicity against human A549 cells expressing high level of topoisomerase I/II measured after 72 hrs by MTT assay; assay type: functional, cell-based; settings: A549, 72 h
[19] = Toxicity in BALB/c nude mouse xenografted with human A-375 cells assessed as tolerability treated after 7 days of tumor implantation on right flank subcutaneously at 10 mg/kg, iv administered once per 2 days for 14 days measured once every two days; assay type: organism-based; settings: in vivo, 336 h, time 14 day
[20] = test system: A-375; test: In vivo antitumor activity against human A-375 cells xenografted in BALB/c nude mouse assessed as shrinkage of tumor tissue treated after 7 days of tumor implantation on right flank subcutaneously at 10 mg/kg, iv administered once per 2 days for 14 days measured once every two days; assay type: functional, organism-based; settings: time 14.0 day
[21] = test system: A-375; test: Induction of cell cycle arrest in human A-375 cells assessed as accumulation of cells at G1 phase at 80 nM incubated for 24 hrs by PI based flow cytometric analysis (RVB = 52.94%); assay type: functional
[22] = Metabolic stability in mouse plasma upto 5 hrs by HPLC-UV analysis; assay type: ADME, cell-free
[23] = test system: A-375; test: as §1, with “[…]” for “C-caspase-3”; assay type: functional, organism-based; settings: time 14.0 day
[24] = test system: MCF7; test: Cytotoxicity against human MCF7 cells expressing high level of topoisomerase I/II measured after 72 hrs by MTT assay; assay type: functional, cell-based; settings: MCF7, 72 h
[25] = Toxicity in BALB/c nude mouse xenografted with human A-375 cells assessed as body weight loss treated after 7 days of tumor implantation on right flank subcutaneously at 10 mg/kg, iv administered once per 2 days for 14 days measured once every two days; assay type: organism-based; settings: in vivo, 336 h, time 14 day
[26] = Microsomal stability in mouse liver microsomes assessed as clearance measured at 2 ug/ml upto 60 mins in presence of NADPH generating system and UGT incubation system by phase II metabolic stability kit method; assay type: ADME, Microsome; settings: dose 2 µg/ml, read-out: CLH
[27] = AUC in Kunming mouse plasma at 10 mg/kg, iv administered as single dose measured after 5 to 360 mins by HPLC analysis; assay type: ADME, organism-based; parameters: time upper 360 min, time lower 5 min, dose 10 mg/kg, route iv
[28] = test system: HCT-116; test: Cytotoxicity against human HCT-116 cells expressing high level of topoisomerase I/II measured after 72 hrs by MTT assay; assay type: functional, cell-based; settings: HCT-116, 72 h
[29] = Volume of distribution in Kunming mouse plasma at 10 mg/kg, iv administered as single dose measured after 5 to 360 mins by HPLC analysis; assay type: ADME, organism-based; settings: time 5-360 min
[30] = Clearance in Kunming mouse plasma at 10 mg/kg, iv administered as single dose measured after 5 to 360 mins by HPLC analysis; assay type: ADME, organism-based; settings: time 5-360 min

## COc1cc([C@@H]2c3cc4c(cc3[C@@H](O[C@@H]3O[C@@H]5CO[C@@H](C)O[C@H]5[C@H](O)[C@H]3O)[C@H]3COC(=O)[C@H]23)OCO4)cc(OC)c1O [ETOPOSIDE]
[1]
  IC50: 3.52 µM
[2]
  IC50 at 72 h: 1.39 µM
[3]
  Cmax: 17700 ng/mL
[4]
  IC50: 0.37 µM
[5]
  IC50: 0.28 µM
[6]
  half-life at 2 ug/ml: 21 min
[7]
  IC50 at 72 h: 1.22 µM
[8]
  Activity: Active
[9]
  Activity: Active
[10]
  Activity: Active
[11]
  selectivity ratio: < 5
[12]
  half-life: 45 min
[13]
  Activity: 12.07%
[14]
  IC50: 0.51 µM
[15]
  Activity: 31.79%
[16]
  Tmax: 5 min
[17]
  IC50: 0.89 µM
[18]
  IC50: 0.6 µM
[19]
  Activity: Toxic
[20]
  Activity: Active
[21]
  Activity: 56.15%
[22]
  Stability: Stable
[23]
  Activity: Active
[24]
  IC50: 0.79 µM
[25]
  Activity: Toxic
[26]
  microsomal CLint at 2 ug/ml: 66 µL/min/mg
[27]
  AUC: 6830 ng·h/mL
[28]
  IC50: 0.38 µM
[29]
  Vd: 0.432 L/kg
[30]
  clearance: 7 mL/min/kg
